The source of these data is US20130059916A1, “BIGUANIDE COMPOUNDS AND ITS USE FOR TREATING CANCER” (priority 2010, published 2013).

In one test the test system is human G361 cells. As to the kind of experiment: Cell viability of human G361 cells, FIG. 2. The format is cell-based. The following applies: metformin 0 to 20 mM. The text has this: AICAR [aminoimidazole carboxamide ribonucleotide] an AMPK agonist, is used as reference.
Test [1] has as its system melanoma cells. The experiment in a line: Cell death by FACS analysis of propidium iodide uptake, FIG. 1''. Type of test: cell-based. The method, then:
Cell death was measured by FACS analysis of propidium iodide uptake.

In test [2] the test system is melanoma cells. As to the kind of experiment: TUNEL assay of mouse tumor sections, FIG. 4'. The format is in vivo. To be noted: tumor sections of metformin-treated mice.
Test [3] has as its system human melanomas cells (A375). As to the kind of experiment: Cell viability of human melanoma cells (A375), FIG. 1. The format is cell-based. The following applies: 0 to 20 mM, 72 h and 96 h. The method, then:
(§1) FIG. 1 discloses a study on viability cells of human melanomas cells (A375) in comparison to normal human melanocytes.
(§2) Doses of metformin used for this experiment are in a range between 0 to 20 mM at 72 h and 96 h.

The subject of the next test is A375 melanoma cells. The experiment in a line: Mouse model of melanoma xenograft (A375), FIG. 4. Type of test: in vivo, athymic nude mice. The following applies: 2 mg/mouse/day by injection, after 23 days of treatment.
The test system of test [4] is freshly human melanoma cells isolated from patients. The experiment in a line: Cell viability of freshly isolated human melanoma cells from patients, FIG. 1'. The following applies: 0 to 10 mM, 72 h. The format is cell-based. The method, then:
FIG. 1′ discloses a study on viability cells of freshly human melanoma cells isolated from patients.
Doses of metformin used for this experiment are in a range between 0 to 10 mM at 72 h.

In the next test the test system is B16 melanoma cells. As to the kind of experiment: Syngenic model, allograft of B16 melanoma cells, FIG. 4''. To be noted: B16 allograft in C57B16 mice.
For the next test, the system named is normal human melanocytes. The experiment in a line: Cell viability of normal human melanocytes, FIG. 1. To be noted: 0 to 20 mM, 72 h and 96 h. Type of test: cell-based. On the procedure: as §1, §2
A further test has as its system AMPK. The experiment in a line: Cell viability after AMPK disruption using si-RNA (Western Blot), FIG. 3. Type of test: cell-based.

With `NC(=O)c1ncn([C@@H]2O[C@H](CO)[C@@H](O)[C@H]2O)c1N` [AICAR, aminoimidazole carboxamide ribonucleotide], the “percentage of cell viability” value in the test with human G361 cells is “no significative effect”.

Take `CN(C)C(=N)NC(=N)N` [Metformin, N,N-dimethylimidodicarbonimidic diamide]: the “cell death (propidium iodide uptake)” value with melanoma cells [1] is on record as “induces a dose dependent cell death”. In the test on melanoma cells [2], the “TUNEL-positive cells in the tumors” value was “increase in TUNEL-positive cells”. Besides, the “effect on cell viability of melanoma cells” value in test [3] was “dose dependent effect”. For the same compound, in the test with A375 melanoma cells, the volume of melanoma entry is on record as “decreases significantly” and the weight of melanoma result is reported as “decreases significantly”. Further, the “effect on cell viability of melanoma cells” value in [4] was “dose dependent effect”. In addition, in the test with B16 melanoma cells, the volume of tumor entry is reported as “diminished” and the weight of tumor entry is “diminished”. Moreover, the “effect on cell viability of melanocytes (normal cells)” value with normal human melanocytes is “no effect”. Also, the “percentage of cell viability” value in the test with human G361 cells is “significant dose dependent decrease”. Moreover, the “dependence of the effect on cell viability on AMPK” value with AMPK is on record as “independent on AMPK”.
